Data on six compounds can be found in patent publication US20100113464A1, “NOVEL PYRIDAZINE DERIVATIVES” (SYNGENTA CROP PROTECTION, INC., priority 2006, published 2010).

Data set [1] has as its system Alternaria solani. The experiment in a line: Alternaria solani/Tomato/Preventive (action against Alternaria on tomato). Type of data set: in vivo. The following applies: 96 h, preventive spray, tomato plants cv. Roter Gnom, assessed after 4 days incubation, untreated controls infected over 80%, read-out: inhibit fungal infestation. Here is the method:
Alternaria solani/Tomato/Preventive (Action Against Alternaria on Tomato) 4 weeks old tomato plants cv. Roter Gnom are treated with the formulated test compound in a spray chamber. Two days after application tomato plants are inoculated by spraying a spore suspension on the test plants. After an incubation period of 4 days at 22° C./18° C. and 95% r.h. in a greenhouse the disease incidence is assessed.

In data set [2] the test system is Botrytis cinerea. The experiment in a line: Botrytis cinerea/Tomato/Preventive (action against Botrytis on tomato). Type of data set: in vivo. Conditions: 72 h, preventive spray, tomato plants cv. Roter Gnom, assessed after 3 days incubation, untreated controls infected over 80%, read-out: inhibit fungal infestation. Here is the method: Botrytis cinerea/Tomato/Preventive (Action Against Botrytis on Tomato) 4 weeks old tomato plants cv. Roter Gnom are treated with the formulated test compound in a spray chamber. Two days after application tomato plants are inoculated by spraying a spore suspension on the test plants. After an incubation period of 3 days at 20° C. and 95% r. h. in a greenhouse the disease incidence is assessed.

In data set [3] the test system is Puccinia recondite. The experiment in a line: Puccinia recondite/Wheat/Preventive (action against brown rust on wheat). Type of data set: in vivo. The following applies: 264 h, preventive spray, wheat plants cv. Arina, assessed 11 days after inoculation, untreated controls infected over 80%, read-out: inhibits fungal infestation. Here is the method: Puccinia recondite/Wheat/Preventive (Action Against Brown Rust on Wheat) 1 week old wheat plants cv. Arina are treated with the formulated test compound in a spray chamber. One day after application wheat plants are inoculated by spraying a spore suspension ([…] uredospores/ml) on the test plants. After an incubation period of 1 day at 20° C. and 95% r h. plants are kept for 10 days 20° C./18° C. (day/night) and 60% r.h. in a greenhouse. The disease incidence is assessed 11 days after inoculation.

Data set [4] has as its system Magnaporthe arisea (Pyricularia oryzae). The experiment in a line: whole plant or invertebrate. In kind it is in vivo. The following applies: 144 h, read-out: inhibit fungal infestation.
Data set [5] deals with Pyrenophora teres (Helminthosporium teres). The experiment in a line: Pyrenophora teres (Helminthosporium teres)/Barley/Preventive (action against net blotch on barley). Type of data set: in vivo. Conditions: 96 h, preventive spray, barley plants cv. Regina, assessed after 4 days incubation, untreated controls infected over 80%, read-out: inhibit fungal infestation. Here is the method: Pyrenophora teres (Helminthosporium teres)/Barley/Preventive (Action Against Net Blotch on Barley) 1-week-old barley plants cv. Regina are treated with the formulated test compound in a spray chamber. Two days after application barley plants are inoculated by spraying a spore suspension (2.6×10^4 conidia/ml) on the test plants. After an incubation period of 4 days at 20° C. and 95% r.h. the disease incidence is assessed.

Data set [6] deals with Septoria tritici. Description: Septoria tritici/Wheat/Preventive (action against Septoria leaf spot on wheat). Type of data set: in vivo. Conditions: Zymoseptoria tritici, preventive spray, wheat plants cv. Riband, assessed 16-18 days after inoculation, untreated controls infected over 80%, read-out: inhibits fungal infestation. Here is the method:
Septoria tritici/Wheat/Preventive (Action Against Septoria Leaf Spot on Wheat) 2 weeks old wheat plants cv. Riband are treated with the formulated test compound in a spray chamber. One day after application wheat plants are inoculated by spraying a spore suspension (10^6 conidia/ml) on the test plants. After an incubation period of 1 day at 22° C./21° C. and 95% r.h. plants are kept at 22° C./21° C. and 70% r.h. in a greenhouse. The disease incidence is assessed 16-18 days after inoculation.

In data set [7] the test system is Uncinula necator. Description: Uncinula necator/Grape/Preventive (action against powdery mildew on grape). Type of data set: in vivo. Conditions: Erysiphe necator, 168 h, preventive spray, grape seedlings cv. Gutedel, assessed after 7 days incubation, untreated controls infected over 80%, read-out: inhibit fungal infestation. Here is the method: Uncinula necator/Grape/Preventive (Action Against Powdery Mildew on Grape) 5 weeks old grape seedlings cv. Gutedel are treated with the formulated test compound in a spray chamber. One day after application grape plants are inoculated by shaking plants infected with grape powdery mildew above the test plants. After an incubation period of 7 days at 24° C./22° C. and 70% r.h. under a light regime of 14/10 h (light/dark) the disease incidence is assessed.

Structures are written as SMILES.

As to `Cc1n[nH]c(=O)c(-c2c(F)cc(F)cc2F)c1-c1cccs1` [I.h.196, 6-methyl-5-thiophen-2-yl-4-(2,4,6-trifluorophenyl)-2H-pyridazin-3-one], the melting point (usually the temperature, or range, at which the solid turns liquid) is 249 to 251 °C.

Consider `Cc1nnc(F)c(-c2c(F)cc(F)cc2F)c1-c1cccs1` [I.h.197, 3-fluoro-6-methyl-5-thiophen-2-yl-4-(2,4,6-trifluorophenyl)-pyridazine], for which the melting point was in the range of 71 to 74 °C. Further, the inhibition at 200 ppm in data set [1] is ≥ 80%. For the same compound, the inhibition at 200 ppm in data set [2] is ≥ 80%. For the same compound, the inhibition at 200 ppm in data set [3] was ≥ 80%. Further, the inhibition at 200 ppm in data set [4] is ≥ 80%. Moreover, the inhibition at 200 ppm in data set [5] was ≥ 80%. The inhibition at 200 ppm in data set [6] was ≥ 80%.

Compound `Cc1nnc(Cl)c(-c2c(F)cc(F)cc2F)c1-c1cccs1` [I.h.198, 3-chloro-6-methyl-5-thiophen-2-yl-4-(2,4,6-trifluorophenyl)-pyridazine] showed a melting point of 90 to 92 °C. For the same compound, the inhibition at 200 ppm in data set [1] was ≥ 80%. In addition, the inhibition at 200 ppm in data set [2] was ≥ 80%. Further, the inhibition at 200 ppm in data set [3] was ≥ 80%. Moreover, the inhibition at 200 ppm in data set [4] is ≥ 80%. The inhibition at 200 ppm in data set [5] is ≥ 80%. In addition, the inhibition at 200 ppm in data set [6] was ≥ 80%. Moreover, in data set [7], the inhibition at 200 ppm is ≥ 80%.

In turn, `COc1nnc(C)c(-c2cccs2)c1-c1c(F)cc(F)cc1F` [I.h.199, 3-methoxy-6-methyl-5-thiophen-2-yl-4-(2,4,6-trifluorophenyl)-pyridazine] displayed a melting point of 124 to 125 °C. Further, in data set [1], the inhibition at 200 ppm was ≥ 80%. In addition, the inhibition at 200 ppm in data set [2] is ≥ 80%. Further, the inhibition at 200 ppm in data set [3] was ≥ 80%. The inhibition at 200 ppm in data set [4] is ≥ 80%. The inhibition at 200 ppm in data set [5] was ≥ 80%. Besides, the inhibition at 200 ppm in data set [6] was ≥ 80%. Further, the inhibition at 200 ppm in data set [7] is ≥ 80%.

With `Cc1nnc(C)c(-c2c(F)cc(F)cc2F)c1-c1cccs1` [I.h.200, 3,6-dimethyl-4-thiophen-2-yl-5-(2,4,6-trifluorophenyl)-pyridazine], the melting point was in the range of 100 to 102 °C. Besides, the inhibition at 200 ppm in data set [1] was ≥ 80%. Moreover, the inhibition at 200 ppm in data set [2] is ≥ 80%. Also, the inhibition at 200 ppm in data set [3] was ≥ 80%. The inhibition at 200 ppm in data set [4] was ≥ 80%. Besides, the inhibition at 200 ppm in data set [5] is ≥ 80%. Besides, the inhibition at 200 ppm in data set [6] is ≥ 80%. For the same compound, in data set [7], the inhibition at 200 ppm was ≥ 80%.

`COc1cc(F)c(-c2c(OC)nnc(C)c2-c2cccs2)c(F)c1` [I.h.254, 4-(2,6-difluoro-4-methoxyphenyl)-3-methoxy-6-methyl-5-thiophen-2-yl-pyridazine] returned a melting point of 130 to 133 °C.
